Assay [1] addresses GDP-bound KRAS wild-type protein (Homo sapiens, UniProt P01116). Nature of the assay: Binding to KRAS by surface plasmon resonance (SPR), Single Cycle Kinetics. The settings on record: GDP-bound KRAS wild-type protein, read-out: KRAS KD.
For assay [2], the target named is GDP-bound NRAS wild-type protein (Homo sapiens, UniProt P01111). Nature of the assay: Binding to NRAS by surface plasmon resonance (SPR), Single Cycle Kinetics. The settings on record: for NRAS/KRAS (ratio of KD value with respect to GDP-bound NRAS wild-type protein to KD value with respect to KRAS): SPR KD ratio NRAS/KRAS, class symbols.
GDP-bound NRAS wild-type protein, sequence (P01111 whole entry): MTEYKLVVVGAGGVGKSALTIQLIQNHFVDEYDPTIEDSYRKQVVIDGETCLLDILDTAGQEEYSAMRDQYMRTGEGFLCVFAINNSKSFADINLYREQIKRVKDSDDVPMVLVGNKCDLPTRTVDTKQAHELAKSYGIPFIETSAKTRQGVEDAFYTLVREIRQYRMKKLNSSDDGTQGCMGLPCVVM
Assay [3] concerns the target GDP-bound HRAS wild-type protein (Homo sapiens, UniProt P01112). Briefly: Binding to HRAS by surface plasmon resonance (SPR), Single Cycle Kinetics. The settings on record: for HRAS/KRAS (ratio of KD value with respect to GDP-bound HRAS wild-type protein to KD value with respect to KRAS): SPR KD ratio HRAS/KRAS, class symbols.
The mark [4] stands for this setting: SPR, GDP-bound NRAS wild-type protein vs GDP-bound KRAS wild-type protein.
[5] abbreviates: SPR, GDP-bound HRAS wild-type protein vs GDP-bound KRAS wild-type protein.
The mark [6] stands for this setting: SPR Single Cycle Kinetics, 1:1 binding model.

Molecules are shown by their SMILES. Like-named read-outs stand apart in the source and are kept apart here.

Consider seven compounds from patent publication US20240158446A1, “CYCLIC COMPOUND HAVING SELECTIVE INHIBITORY ACTION ON KRAS OVER HRAS AND NRAS” (CHUGAI SEIYAKU KABUSHIKI KAISHA, priority 2021, published 2024).

GDP-bound HRAS wild-type protein, sequence (P01112 whole entry): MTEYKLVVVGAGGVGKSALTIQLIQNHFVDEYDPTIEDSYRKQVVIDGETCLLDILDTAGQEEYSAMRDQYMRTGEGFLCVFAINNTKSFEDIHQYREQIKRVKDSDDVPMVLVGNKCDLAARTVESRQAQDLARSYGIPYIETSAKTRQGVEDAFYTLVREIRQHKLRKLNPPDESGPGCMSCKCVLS
GDP-bound KRAS wild-type protein, sequence (P01116 whole entry): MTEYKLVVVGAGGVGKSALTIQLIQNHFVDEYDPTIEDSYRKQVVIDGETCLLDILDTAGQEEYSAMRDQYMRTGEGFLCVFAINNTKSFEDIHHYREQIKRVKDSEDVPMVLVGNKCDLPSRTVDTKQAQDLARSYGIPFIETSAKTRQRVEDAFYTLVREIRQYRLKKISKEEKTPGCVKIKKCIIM

For `CCCN1C(=O)CN(C)C(=O)CN(C)C(=O)[C@H]([C@@H](C)CC)NC(=O)[C@@H]2CCCCCOc3ccc(cc3)C[C@H]1C(=O)N(C)CC(=O)N[C@@H](CCc1cc(F)c(C(F)(F)F)c(F)c1)C(=O)N1C[C@H](OCC)C[C@H]1C(=O)NC1(CCCC1)C(=O)N(C)[C@@H](C1CCCC1)C(=O)N(C)[C@H](C(=O)N(C)C)CC(=O)N2C` [PP0895], in assay [1] (SPR, Single Cycle Kinetics), the Kd was found to be 0.0072 nM. In assay [2] (setting [4]), the “NRAS/KRAS (ratio of KD value for NRAS to KD value for KRAS)” value was “C (A compound having a KD ratio of 0.1 or more and less than 3 is denoted as C)”. Further, the “HRAS/KRAS (ratio of KD value for HRAS to KD value for KRAS)” value in assay [3] (setting [5]) was “C (A compound having a KD ratio of 0.1 or more and less than 3 is denoted as C)”.

In the case of `C=CCN1CC(=O)N(C)[C@H]2C/C=C\CCN(C2=O)[C@@H](Cc2ccc(C(F)(F)F)cc2)C(=O)N(C)CC(=O)N[C@@H](CCc2cc(F)c(C(F)(F)F)c(F)c2)C(=O)N2C[C@H](OCC)C[C@H]2C(=O)NC2(CC(C)(C)C2)C(=O)N(C)[C@@H](C2CCCC2)C(=O)N(C)[C@H](C(=O)N(C)C)CC(=O)N(C)[C@@H](CCC)C(=O)N[C@@H]([C@@H](C)CC)C1=O` [PP2102], the Kd in assay [1] (SPR, Single Cycle Kinetics) turned out to be 0.16 nM. Besides, the “NRAS/KRAS (ratio of KD value for NRAS to KD value for KRAS)” value in assay [2] (setting [4]) was “A (a compound having 10 or more and less than 20 is denoted as A)”. For the same compound, the “HRAS/KRAS (ratio of KD value for HRAS to KD value for KRAS)” value in assay [3] (setting [5]) is “A (a compound having 10 or more and less than 20 is denoted as A)”.

As for `CCC[C@H]1C(=O)N[C@@H]([C@@H](C)CC)C(=O)N(C)CC(=O)N(C)[C@H]2C/C=C\CCN(C2=O)[C@@H](Cc2ccc(C(F)(F)F)cc2)C(=O)N(C)CC(=O)N[C@@H](CCc2cc(F)c(C(F)F)c(F)c2)C(=O)N2C[C@H](OCC)C[C@H]2C(=O)NC2(CC(C)(C)C2)C(=O)N(C)[C@@H](C2CCCC2)C(=O)N(C)[C@H](C(=O)N(C)C)CC(=O)N1C` [PP2780], the Kd in assay [1] (setting [6]) is 0.3 nM. In addition, in assay [2], the “NRAS/KRAS (ratio of KD value with respect to GDP-bound NRAS wild-type protein to KD value with respect to KRAS)” value was “A (a compound having 10 or more and less than 20 is denoted as A)”. For the same compound, in assay [3], the “HRAS/KRAS (ratio of KD value with respect to GDP-bound HRAS wild-type protein to KD value with respect to KRAS)” value was “A (a compound having 10 or more and less than 20 is denoted as A)”.

Take `C#CC[C@H]1C(=O)N[C@@H]([C@@H](C)CC)C(=O)N(C)CC(=O)N(C)[C@H]2C/C=C\CCN(C2=O)[C@@H](Cc2ccc(C(F)(F)F)cc2)C(=O)N(C)CC(=O)N[C@@H](CCc2ccc(C(F)(F)F)c(OC)c2)C(=O)N2CC[C@H]2C(=O)NC2(CC(C)(C)C2)C(=O)N(C)[C@@H](C2CCCC2)C(=O)N(C)[C@H](C(=O)N(C)C)CC(=O)N1C` [PP2909]: in assay [1] (setting [6]), the Kd stood at 1 nM. For the same compound, the “NRAS/KRAS (ratio of KD value with respect to GDP-bound NRAS wild-type protein to KD value with respect to KRAS)” value in assay [2] was “B (a compound having 3 or more and less than 10 is denoted as B)”. The “HRAS/KRAS (ratio of KD value with respect to GDP-bound HRAS wild-type protein to KD value with respect to KRAS)” value in assay [3] was “B (a compound having 3 or more and less than 10 is denoted as B)”.

Turning to `CCO[C@@H]1C[C@H]2C(=O)NC3(CCC3)C(=O)N(C)[C@@H](C3CCCC3)C(=O)N(C)[C@H](C(=O)N3CCOCC3)CC(=O)N(C)[C@@H](COC)C(=O)N[C@@H]([C@@H](C)CC)C(=O)N(C)CC(=O)N(C)[C@H]3CCCCCN(C3=O)[C@@H](Cc3ccc(C(F)(F)F)cc3)C(=O)N(C)CC(=O)N[C@@H](CCc3cc(F)c(C(F)(F)F)c(F)c3)C(=O)N2C1` [PP0689], in assay [1] (setting [6]), the Kd was determined as 0.3 nM. For the same compound, the “NRAS/KRAS (ratio of KD value with respect to NRAS to KD value with respect to KRAS)” value in assay [2] (setting [4]) was “B (a compound having 3 or more and less than 10 is denoted as B)”. For the same compound, the “HRAS/KRAS (ratio of KD value with respect to HRAS to KD value with respect to KRAS)” value in assay [3] (setting [5]) was “B (a compound having 3 or more and less than 10 is denoted as B)”.

On to `CCC[C@H]1C(=O)N[C@@H]([C@@H](C)CC)C(=O)N(C)CC(=O)N(C)[C@H]2C/C=C\CCN(C2=O)[C@@H](Cc2ccc(C)cc2)C(=O)N(C)CC(=O)N[C@@H](CCc2ccc(Cl)c(OC)c2)C(=O)N2C[C@H](OCC)C[C@H]2C(=O)NC2(CC(C)(C)C2)C(=O)N(C)[C@@H](C2CCCC2)C(=O)N(C)[C@H](C(=O)N(C)C)CC(=O)N1C` [PP2790], for which, in assay [1] (setting [6]), the Kd was 0.54 nM. The “NRAS/KRAS (ratio of KD value with respect to GDP-bound NRAS wild-type protein to KD value with respect to KRAS)” value in assay [2] was “A (a compound having 10 or more and less than 20 is denoted as A)”. Further, the “HRAS/KRAS (ratio of KD value with respect to GDP-bound HRAS wild-type protein to KD value with respect to KRAS)” value in assay [3] was “A (a compound having 10 or more and less than 20 is denoted as A)”.

`CCCO[C@@H]1C[C@H]2C(=O)NC3(CCC3)C(=O)N(C)[C@@H](C3CCCC3)C(=O)N(C)[C@H](C(=O)N3CCOCC3)CC(=O)N(C)[C@@H](COC)C(=O)N[C@@H]([C@@H](C)CC)C(=O)N(C)CC(=O)N(C)[C@H]3CCCCCN(C3=O)[C@@H](Cc3ccc(C(F)(F)F)cc3)C(=O)N(C)CC(=O)N[C@@H](CCc3cc(F)c(C(F)(F)F)c(F)c3)C(=O)N2C1` [PP0838]: the Kd in assay [1] (SPR, Single Cycle Kinetics) amounted to 0.53 nM. For the same compound, in assay [2] (setting [4]), the “NRAS/KRAS (ratio of KD value for NRAS to KD value for KRAS)” value is “B (a compound having 3 or more and less than 10 is denoted as B)”. For the same compound, the “HRAS/KRAS (ratio of KD value for HRAS to KD value for KRAS)” value in assay [3] (setting [5]) was “B (a compound having 3 or more and less than 10 is denoted as B)”.
